Assays:
[1] = target: Sodium-dependent noradrenaline transporter (Homo sapiens) (UniProt P23975); conditions: Compound concentration 10.0 uM
[2] = target: Serine/threonine-protein kinase PAK 4 (Homo sapiens) (UniProt O96013); conditions: Compound concentration 1000.0 nM
[3] = target: Proto-oncogene tyrosine-protein kinase Src (Homo sapiens) (UniProt P12931); conditions: Compound concentration 1000.0 nM
[4] = system: Fibroblast growth factor receptor 3 (Homo sapiens), P22607 [G697C]; conditions: Compound concentration 1000.0 nM
[5] = target: Activin receptor type-2B (Homo sapiens) (UniProt Q13705); conditions: Compound concentration 1000.0 nM
[6] = target: Fibroblast growth factor receptor 3 (Homo sapiens) (UniProt P22607); conditions: Compound concentration 1000.0 nM
[7] = target: Serine/threonine-protein kinase Sgk3 (Homo sapiens) (UniProt Q96BR1); conditions: Compound concentration 1000.0 nM
[8] = target: Serine/threonine-protein kinase PLK1 (Homo sapiens) (UniProt P53350); conditions: Compound concentration 1000.0 nM
[9] = target: Serine/threonine-protein kinase WNK3 (Homo sapiens) (UniProt Q9BYP7); conditions: Compound concentration 1000.0 nM
[10] = target: Serine/threonine-protein kinase RIO2 (Homo sapiens) (UniProt Q9BVS4); conditions: Compound concentration 1000.0 nM
[11] = system: Tyrosine-protein kinase ABL1 (Homo sapiens), P00519 [F317L]; conditions: Compound concentration 1000.0 nM
Chain of Tyrosine-protein kinase ABL1 (Homo sapiens), P00519 [F317L] (P00519 whole entry F317L): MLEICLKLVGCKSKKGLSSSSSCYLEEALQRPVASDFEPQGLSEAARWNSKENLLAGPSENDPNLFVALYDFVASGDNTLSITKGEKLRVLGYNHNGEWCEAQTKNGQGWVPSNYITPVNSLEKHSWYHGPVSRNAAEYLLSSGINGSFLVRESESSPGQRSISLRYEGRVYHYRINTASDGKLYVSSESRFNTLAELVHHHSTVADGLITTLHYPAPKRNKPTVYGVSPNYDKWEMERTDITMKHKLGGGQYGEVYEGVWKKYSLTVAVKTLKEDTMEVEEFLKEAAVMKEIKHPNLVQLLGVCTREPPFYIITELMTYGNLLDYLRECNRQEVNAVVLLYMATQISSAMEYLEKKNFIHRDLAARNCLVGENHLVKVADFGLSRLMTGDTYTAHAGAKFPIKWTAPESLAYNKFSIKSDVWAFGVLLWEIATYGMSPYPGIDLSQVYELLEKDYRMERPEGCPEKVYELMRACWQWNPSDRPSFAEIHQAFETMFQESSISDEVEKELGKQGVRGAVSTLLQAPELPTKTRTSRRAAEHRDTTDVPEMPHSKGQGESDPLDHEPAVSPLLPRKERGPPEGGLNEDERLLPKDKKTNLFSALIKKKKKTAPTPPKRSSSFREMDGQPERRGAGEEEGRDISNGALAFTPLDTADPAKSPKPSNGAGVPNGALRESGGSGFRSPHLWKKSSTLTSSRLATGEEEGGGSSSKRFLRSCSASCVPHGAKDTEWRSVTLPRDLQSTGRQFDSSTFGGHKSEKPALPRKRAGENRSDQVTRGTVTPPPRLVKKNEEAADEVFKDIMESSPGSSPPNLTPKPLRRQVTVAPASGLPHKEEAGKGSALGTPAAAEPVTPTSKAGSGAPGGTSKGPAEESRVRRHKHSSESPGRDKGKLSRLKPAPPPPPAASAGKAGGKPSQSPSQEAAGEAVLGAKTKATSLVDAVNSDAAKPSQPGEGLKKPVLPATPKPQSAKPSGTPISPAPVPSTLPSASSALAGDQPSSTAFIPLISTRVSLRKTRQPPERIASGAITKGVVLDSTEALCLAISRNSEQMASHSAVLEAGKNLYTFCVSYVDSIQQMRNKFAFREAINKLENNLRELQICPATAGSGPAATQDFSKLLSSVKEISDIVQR

[12] = system: Mast/stem cell growth factor receptor Kit (Homo sapiens), P10721 [V559D,V654A]; conditions: Compound concentration 1000.0 nM
[13] = target: Interleukin-1 receptor-associated kinase 3 (Homo sapiens) (UniProt Q9Y616); conditions: Compound concentration 1000.0 nM
[14] = target: Mitogen-activated protein kinase kinase kinase 13 (Homo sapiens) (UniProt O43283); conditions: Compound concentration 1000.0 nM
Chain of Mitogen-activated protein kinase kinase kinase 13 (Homo sapiens) (O43283 whole entry): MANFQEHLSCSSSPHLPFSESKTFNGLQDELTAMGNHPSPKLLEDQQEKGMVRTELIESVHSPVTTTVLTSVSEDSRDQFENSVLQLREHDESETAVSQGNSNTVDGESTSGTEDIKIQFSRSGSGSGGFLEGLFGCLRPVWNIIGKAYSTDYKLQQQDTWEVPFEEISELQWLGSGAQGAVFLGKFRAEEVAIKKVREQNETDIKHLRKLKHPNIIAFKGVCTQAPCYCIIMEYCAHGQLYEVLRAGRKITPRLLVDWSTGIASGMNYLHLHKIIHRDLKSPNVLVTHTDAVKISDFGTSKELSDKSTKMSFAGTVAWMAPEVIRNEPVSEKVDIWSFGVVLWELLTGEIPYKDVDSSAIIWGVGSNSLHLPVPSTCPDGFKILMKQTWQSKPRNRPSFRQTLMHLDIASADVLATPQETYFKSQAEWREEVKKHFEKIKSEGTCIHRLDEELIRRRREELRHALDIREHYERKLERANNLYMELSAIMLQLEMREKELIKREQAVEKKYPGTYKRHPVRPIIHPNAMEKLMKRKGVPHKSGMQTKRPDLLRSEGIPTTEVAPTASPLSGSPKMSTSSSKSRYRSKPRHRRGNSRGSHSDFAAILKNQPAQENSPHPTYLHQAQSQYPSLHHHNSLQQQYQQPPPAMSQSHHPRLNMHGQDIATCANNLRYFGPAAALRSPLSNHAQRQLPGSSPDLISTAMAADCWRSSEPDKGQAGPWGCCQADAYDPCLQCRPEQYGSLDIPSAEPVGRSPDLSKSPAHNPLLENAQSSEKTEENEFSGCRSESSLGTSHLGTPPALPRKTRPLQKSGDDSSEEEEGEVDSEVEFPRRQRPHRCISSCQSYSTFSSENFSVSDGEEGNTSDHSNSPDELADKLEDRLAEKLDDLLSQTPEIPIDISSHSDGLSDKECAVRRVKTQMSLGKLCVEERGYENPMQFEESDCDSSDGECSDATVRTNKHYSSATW

[15] = target: Serine/threonine-protein kinase WNK4 (Homo sapiens) (UniProt Q96J92); conditions: Compound concentration 1000.0 nM
[16] = target: Serine/threonine-protein kinase 38 (Homo sapiens) (UniProt Q15208); conditions: Compound concentration 1000.0 nM
[17] = target: 5-hydroxytryptamine receptor 2A (Homo sapiens) (UniProt P28223); conditions: Compound concentration 10.0 uM
[18] = target: Macrophage colony-stimulating factor 1 receptor (Homo sapiens) (UniProt P07333); conditions: Compound concentration 1000.0 nM
[19] = target: Myotonin-protein kinase (Homo sapiens) (UniProt Q09013); conditions: Compound concentration 1000.0 nM
[20] = target: Uncharacterized serine/threonine-protein kinase SBK3 (Homo sapiens) (UniProt P0C264); conditions: Compound concentration 1000.0 nM
[21] = target: Vascular endothelial growth factor receptor 2 (Homo sapiens) (UniProt P35968); conditions: Compound concentration 1000.0 nM
[22] = target: Cyclin-dependent kinase 15 (Homo sapiens) (UniProt Q96Q40); conditions: Compound concentration 1000.0 nM
[23] = system: Tyrosine-protein kinase ABL1 (Homo sapiens), P00519 [F317I]; conditions: Compound concentration 1000.0 nM
Chain of Tyrosine-protein kinase ABL1 (Homo sapiens), P00519 [F317I] (P00519 whole entry F317I): as the sequence (P00519 whole entry F317L) above, with L317I counted along it

[24] = target: Insulin-like growth factor 1 receptor (Homo sapiens) (UniProt P08069); conditions: Compound concentration 1000.0 nM
[25] = target: Mitogen-activated protein kinase 8 (Homo sapiens) (UniProt P45983); conditions: Compound concentration 1000.0 nM
[26] = target: Calcium/calmodulin-dependent protein kinase type IV (Homo sapiens) (UniProt Q16566); conditions: Compound concentration 1000.0 nM
Chain of Calcium/calmodulin-dependent protein kinase type IV (Homo sapiens) (Q16566 whole entry): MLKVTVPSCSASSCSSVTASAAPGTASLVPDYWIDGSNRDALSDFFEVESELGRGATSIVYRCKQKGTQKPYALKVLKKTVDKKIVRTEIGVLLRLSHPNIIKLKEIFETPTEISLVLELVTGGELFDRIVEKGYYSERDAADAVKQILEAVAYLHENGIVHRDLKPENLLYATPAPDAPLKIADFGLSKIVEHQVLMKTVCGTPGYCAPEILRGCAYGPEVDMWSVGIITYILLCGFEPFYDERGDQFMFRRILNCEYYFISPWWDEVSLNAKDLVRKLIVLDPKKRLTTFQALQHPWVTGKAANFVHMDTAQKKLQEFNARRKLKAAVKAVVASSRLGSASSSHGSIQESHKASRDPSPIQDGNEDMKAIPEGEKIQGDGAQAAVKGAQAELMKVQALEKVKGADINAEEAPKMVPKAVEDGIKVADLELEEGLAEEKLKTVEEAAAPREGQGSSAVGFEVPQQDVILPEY

[27] = target: Mitogen-activated protein kinase kinase kinase 20 (Homo sapiens) (UniProt Q9NYL2); conditions: Compound concentration 1000.0 nM
[28] = system: eIF-2-alpha kinase GCN2 (Homo sapiens), Q9P2K8 [S808G]; conditions: Compound concentration 1000.0 nM
[29] = system: Mast/stem cell growth factor receptor Kit (Homo sapiens), P10721 [V559D,T670I]; conditions: Compound concentration 1000.0 nM
[30] = system: Phosphatidylinositol 4,5-bisphosphate 3-kinase catalytic subunit alpha isoform (Homo sapiens), P42336 [E545A]; conditions: Compound concentration 1000.0 nM
[31] = target: Receptor tyrosine-protein kinase erbB-2 (Homo sapiens) (UniProt P04626); conditions: Compound concentration 1000.0 nM
[32] = target: Tyrosine-protein kinase receptor Tie-1 (Homo sapiens) (UniProt P35590); conditions: Compound concentration 1000.0 nM
Chain of Tyrosine-protein kinase receptor Tie-1 (Homo sapiens) (P35590 whole entry): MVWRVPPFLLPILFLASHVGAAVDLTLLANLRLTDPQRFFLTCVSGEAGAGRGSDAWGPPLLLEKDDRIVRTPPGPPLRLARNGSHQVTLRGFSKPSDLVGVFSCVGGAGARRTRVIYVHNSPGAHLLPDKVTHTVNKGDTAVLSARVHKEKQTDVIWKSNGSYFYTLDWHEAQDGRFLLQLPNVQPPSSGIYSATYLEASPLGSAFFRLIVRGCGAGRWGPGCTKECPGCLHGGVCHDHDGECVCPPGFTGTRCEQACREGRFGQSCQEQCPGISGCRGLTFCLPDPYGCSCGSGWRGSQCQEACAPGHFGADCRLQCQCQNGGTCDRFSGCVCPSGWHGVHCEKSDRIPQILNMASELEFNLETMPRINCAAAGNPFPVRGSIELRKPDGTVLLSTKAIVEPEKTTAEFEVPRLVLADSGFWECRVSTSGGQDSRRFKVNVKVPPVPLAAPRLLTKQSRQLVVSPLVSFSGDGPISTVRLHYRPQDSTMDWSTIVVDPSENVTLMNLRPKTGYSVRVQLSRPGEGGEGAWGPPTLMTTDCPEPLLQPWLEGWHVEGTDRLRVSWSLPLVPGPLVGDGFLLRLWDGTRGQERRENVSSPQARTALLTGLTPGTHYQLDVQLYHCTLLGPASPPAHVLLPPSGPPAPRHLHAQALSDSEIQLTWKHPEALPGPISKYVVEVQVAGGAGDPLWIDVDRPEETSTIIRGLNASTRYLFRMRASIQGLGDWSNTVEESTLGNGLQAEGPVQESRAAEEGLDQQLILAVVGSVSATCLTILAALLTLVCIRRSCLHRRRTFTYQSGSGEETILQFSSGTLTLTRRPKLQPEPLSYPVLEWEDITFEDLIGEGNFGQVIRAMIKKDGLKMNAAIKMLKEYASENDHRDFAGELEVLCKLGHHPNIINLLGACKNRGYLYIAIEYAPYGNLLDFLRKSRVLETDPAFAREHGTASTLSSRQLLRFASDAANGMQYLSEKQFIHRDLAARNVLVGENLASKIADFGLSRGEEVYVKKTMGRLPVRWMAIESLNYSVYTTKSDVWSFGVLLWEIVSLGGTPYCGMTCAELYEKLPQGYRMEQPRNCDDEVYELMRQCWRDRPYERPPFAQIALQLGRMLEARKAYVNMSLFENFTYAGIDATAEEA

[33] = target: Serine/threonine-protein kinase pim-2 (Homo sapiens) (UniProt Q9P1W9); conditions: Compound concentration 1000.0 nM
Chain of Serine/threonine-protein kinase pim-2 (Homo sapiens) (Q9P1W9 whole entry, looked up): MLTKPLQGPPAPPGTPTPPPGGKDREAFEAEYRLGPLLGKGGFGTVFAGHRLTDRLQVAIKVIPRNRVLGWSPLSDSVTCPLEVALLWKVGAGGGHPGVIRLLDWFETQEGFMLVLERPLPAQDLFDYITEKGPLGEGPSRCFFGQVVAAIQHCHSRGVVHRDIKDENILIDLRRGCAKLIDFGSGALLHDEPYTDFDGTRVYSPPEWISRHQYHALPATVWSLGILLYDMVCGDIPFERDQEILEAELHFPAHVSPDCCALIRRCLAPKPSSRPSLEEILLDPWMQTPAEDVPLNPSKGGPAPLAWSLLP

[34] = target: Ephrin type-B receptor 4 (Homo sapiens) (UniProt P54760); conditions: Compound concentration 1000.0 nM
[35] = target: Phosphorylase b kinase regulatory subunit alpha, liver isoform (Homo sapiens) (UniProt P46019); conditions: Compound concentration 1000.0 nM
[36] = system: Epidermal growth factor receptor (Homo sapiens), P00533 [L858R]; conditions: Compound concentration 1000.0 nM
[37] = system: Tyrosine-protein kinase ABL1 (Homo sapiens), P00519 [F317I]; conditions: Compound concentration 1000.0 nM; remark: listed apart in the source
[38] = target: Ephrin type-A receptor 8 (Homo sapiens) (UniProt P29322); conditions: Compound concentration 1000.0 nM
[39] = target: Serine/threonine-protein kinase PAK 5 (Homo sapiens) (UniProt Q9P286); conditions: Compound concentration 1000.0 nM
Chain of Serine/threonine-protein kinase PAK 5 (Homo sapiens) (Q9P286 whole entry, looked up): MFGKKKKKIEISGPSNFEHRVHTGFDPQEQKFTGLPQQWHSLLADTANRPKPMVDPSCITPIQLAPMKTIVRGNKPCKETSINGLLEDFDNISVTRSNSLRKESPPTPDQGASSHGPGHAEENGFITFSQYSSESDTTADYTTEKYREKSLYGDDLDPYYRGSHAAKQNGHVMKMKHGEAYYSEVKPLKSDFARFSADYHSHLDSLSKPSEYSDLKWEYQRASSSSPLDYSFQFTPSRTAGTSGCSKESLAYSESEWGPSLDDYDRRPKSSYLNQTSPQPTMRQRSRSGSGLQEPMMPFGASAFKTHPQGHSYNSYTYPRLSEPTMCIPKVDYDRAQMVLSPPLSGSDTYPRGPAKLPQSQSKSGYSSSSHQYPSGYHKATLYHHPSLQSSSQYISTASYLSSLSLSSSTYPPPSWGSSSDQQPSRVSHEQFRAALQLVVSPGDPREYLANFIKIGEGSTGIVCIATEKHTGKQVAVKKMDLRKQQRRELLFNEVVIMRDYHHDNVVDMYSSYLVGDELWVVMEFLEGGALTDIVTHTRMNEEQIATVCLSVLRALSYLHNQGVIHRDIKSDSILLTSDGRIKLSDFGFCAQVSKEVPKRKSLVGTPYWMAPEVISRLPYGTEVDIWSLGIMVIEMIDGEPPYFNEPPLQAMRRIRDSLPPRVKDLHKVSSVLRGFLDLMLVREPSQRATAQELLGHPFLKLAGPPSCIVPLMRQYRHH

[40] = target: Interleukin-1 receptor-associated kinase 1 (Homo sapiens) (UniProt P51617); conditions: Compound concentration 1000.0 nM
[41] = target: Dual specificity tyrosine-phosphorylation-regulated kinase 2 (Homo sapiens) (UniProt Q92630); conditions: Compound concentration 1000.0 nM
[42] = system: Hepatocyte growth factor receptor (Homo sapiens), P08581 [Y1235D]; conditions: Compound concentration 1000.0 nM
[43] = target: Mitogen-activated protein kinase 14 (Homo sapiens) (UniProt Q16539); conditions: Compound concentration 1000.0 nM
[44] = system: Tyrosine-protein kinase ABL1 (Homo sapiens), P00519 [E255K]; conditions: Compound concentration 1000.0 nM
Chain of Tyrosine-protein kinase ABL1 (Homo sapiens), P00519 [E255K] (P00519 whole entry E255K): as the sequence (P00519 whole entry F317L) above, with E255K, L317F counted along it

[45] = target: Serine/threonine-protein kinase STK11 (Homo sapiens) (UniProt Q15831); conditions: Compound concentration 1000.0 nM

COc1ccc2c(O[C@@H]3C[C@H]4C(=O)N[C@]5(C(=O)O)CC5/C=C\CCCCC[C@H](NC(=O)OC5CCCC5)C(=O)N4C3)cc(-c3csc(NC(=O)C(C)C)n3)nc2c1C (stereo not given in full) [BI 1230]
inactive: inhibition [1] -4.46% | residual activity [2] 99% | residual activity [3] 100% | residual activity [4] 88% | residual activity [5] 100% | residual activity [6] 100% | residual activity [7] 75% | residual activity [8] 77% | residual activity [9] 100% | residual activity [10] 100% | residual activity [11] 75% | residual activity [12] 74% | residual activity [13] 97% | residual activity [14] 86% | residual activity [15] 91% | residual activity [16] 50% | inhibition [17] 11.4% | residual activity [18] 71% | residual activity [19] 83% | residual activity [20] 99% | residual activity [21] 83% | residual activity [22] 100% | residual activity [23] 90% | residual activity [24] 98% | residual activity [25] 81% | residual activity [26] 95% | residual activity [27] 83% | residual activity [28] 100% | residual activity [29] 76% | residual activity [30] 100% | residual activity [31] 97% | residual activity [32] 100% | residual activity [33] 100% | residual activity [34] 100% | residual activity [35] 100% | residual activity [36] 100% | residual activity [37] 76% | residual activity [38] 100% | residual activity [39] 100% | residual activity [40] 69% | residual activity [41] 77% | residual activity [42] 100% | residual activity [43] 100% | residual activity [44] 80% | residual activity [45] 100%

O=C(N[C@H]1CCCCC/C=C\C2C[C@@]2(C(=O)O)NC(=O)[C@@H]2C[C@@H](Oc3ccncc3)CN2C1=O)OC1CCCC1 (stereo not given in full) [BI 1675]
inactive: inhibition [1] -6.94% | residual activity [2] 99% | residual activity [3] 100% | residual activity [4] 100% | residual activity [5] 100% | residual activity [6] 88% | residual activity [7] 100% | residual activity [8] 71% | residual activity [9] 100% | residual activity [10] 100% | residual activity [11] 100% | residual activity [12] 63% | residual activity [13] 72% | residual activity [14] 100% | residual activity [15] 100% | residual activity [16] 97% | inhibition [17] -7.7% | residual activity [18] 95% | residual activity [19] 89% | residual activity [20] 79% | residual activity [21] 100% | residual activity [22] 100% | residual activity [23] 100% | residual activity [24] 96% | residual activity [25] 86% | residual activity [26] 90% | residual activity [27] 90% | residual activity [28] 100% | residual activity [29] 100% | residual activity [30] 100% | residual activity [31] 100% | residual activity [32] 100% | residual activity [33] 100% | residual activity [34] 100% | residual activity [35] 100% | residual activity [36] 96% | residual activity [37] 96% | residual activity [38] 100% | residual activity [39] 83% | residual activity [40] 88% | residual activity [41] 66% | residual activity [42] 81% | residual activity [43] 94% | residual activity [44] 80% | residual activity [45] 85%

From ChEMBL document CHEMBL4507284, “Data for DCP probe BI-1230” (2021)
